Patent US11608359B2, “Compounds and methods for treating tight junction permeabtility” (9 Meters Biopharma, Inc., priority 2018, dated 2023)
Where no end group is shown, it is not given here.

Legend:
tight junctions = assay: activity as tight junction regulators; settings: for activity as tight junction regulator: peptide fragment alone
[1] = clinical trials, particularly lower doses (e.g., 0.5 mg dose); cited from earlier work

Substance | activity of full length Larazotide as tight junction regulator (tight junctions; mixed with the two fragments GVLVQPG and VLVQPG) | benefit at reducing CeD symptoms [1] | activity as tight junction regulator (tight junctions)
GGVLVQPG [Larazotide] | completely abolished | significant benefit | –
GVLVQP (Synthetic polymer.) | – | – | inactive
GVLVQPG [Larazotide-derived fragment missing N-terminal glycine] | – | – | inactive
VLVQP (Synthetic polymer.) | – | – | inactive
VLVQPG | – | – | inactive
